Earlier results as cited in patent US20020177579A1, “Extended release formulation of water-soluble drugs” (priority 2000, published 2002).
Where a name gives a salt, the structure may show the parent alone.

Legend:
[1] = for Fraction Absorbed: in vivo

| Fraction Absorbed [1] | Solubility (in words) | Compound | further results |
| --- | --- | --- | --- |
| ˜90% | “Readily | CN1C2CCCC1CC(NC(=O)c1nn(C)c3ccccc13)C2 (centres unmarked) [Granisetron HCI] |  |
| 36% |  | CCC(=O)O[C@@H](O[P@](=O)(CCCCc1ccccc1)CC(=O)N1C[C@H](C2CCCCC2)C[C@H]1C(=O)O)C(C)C [Fosinopril Sodium] | Solubility: 100 mg/mL |
| 37% |  | CCOC(=O)[C@H](CCc1ccccc1)N[C@H]1CCc2ccccc2N(CC(=O)O)C1=O.Cl [Benazepril HCI] | Solubility: >100 mg/mL |
| 60% | “Freely | CCOC(=O)[C@H](CCc1ccccc1)N[C@@H](C)C(=O)N1Cc2ccccc2C[C@H]1C(=O)O [Quinapril HCI] |  |

The remaining lines, values behind:

| Compound | Fraction Absorbed [1] | Solubility (in words) | further results |
| --- | --- | --- | --- |
| CNS(=O)(=O)Cc1ccc2[nH]cc(CCN(C)C)c2c1 [Sumatriptan Succinate] | 15% | “Readily |  |
| COCCc1ccc(OCC(O)CNC(C)C)cc1 (centres unmarked) [Metoprolol Succinate] |  | “Freely |  |
| COc1ccc([C@@H]2Sc3ccccc3N(CCN(C)C)C(=O)[C@@H]2OC(C)=O)cc1 [Diltiazem hydrochloride, 1,5-benzothiazepin-4 (5H) one, 3-(acetyloxy)-5-[2-(dimethylamino)ethyl]-2,3-dihydro-2-(4-methoxyphenyl)-, monohydrochloride, (+)-cis-4] |  |  | absolute bioavailability ([1]; compared to intravenous administration): about 40%; solubility in 100% ethanol (100% ethanol): slightly soluble; solubility in benzene (benzene): not soluble; solubility in chloroform (chloroform): freely soluble; solubility in methanol (methanol): freely soluble; solubility in water (water): freely soluble |
